Reference: patent publication US12252457B2, “Compositions and methods for reducing tactile dysfunction, anxiety, and social impairment” (President and Fellows of Harvard College, priority 2018, dated 2025)

Assay: Bio-distribution of isoguvacine by LC-MS
Format: in vivo, mouse
Experimental: FIGS. 19A-19N show acute administration of the peripherally-restricted GABAA receptor agonist isoguvacine improves tactile hypersensitivity in five genetic and one environmental model of ASD. […] Two-way ANOVA with post-hoc Sidak's test, *, p<0.05. FIG. 19B: Response to a light air puff stimulus alone in mice following i.p. administration of either saline or 2 mg/kg midazolam treatment. Responses are expressed as percent of startle response to a 125 dB noise. Two-way ANOVA with post-hoc Sidak's test, *, p<0.05. FIG. 19C: Magnitude of startle response to a 125 dB noise in mice following i.p. administration of either saline or 2 mg/kg midazolam treatment. Responses are expressed as percent of startle response to a 125 dB noise. Two-way ANOVA with post-hoc Sidak's test, *, p<0.05. FIG. 19D: Magnitude of startle response to a 125 dB noise in mice following i.p. administration of saline, midazolam (2 mg/kg) or a peripherally-restricted GABAA receptor agonist, isoguvacine (2 mg/kg). Responses are expressed as percent of startle response to a 125 dB noise. Two-way ANOVA with post-hoc Sidak's test, *, p<0.05. FIGS. 19E-19G: Liquid chromatography mass spectrometry (LC-MS) quantified isoguvacine concentrations in cerebrospinal fluid (CSF) (FIG. 19E), blood (FIG. 19F) or liver (FIG. 19G) samples of mice treated with: i.p. saline, i.p. isoguvacine (“Iso.”, 20 mg/kg, samples collected 1, 3 or 24 hours post-injection), intracerebral injection isoguvacine (20 mg/kg, 1 hour post-injection), i.p. diazepam (“DZ”, 20 mg/kg, 1 hour post injection) or intracerebral injection diazepam (20 mg/kg, 1 hour post injection). FIG. 19H: Normalized peak chloride flux through α1β3γ2- and α2β3γ2-containing GABAA receptors in response to isoguvacine application. […] FIGS. 19I-19K: GABAA receptor subunit RNA expression levels across peripheral somatosensory neuron subtypes, for the alpha (FIG. 19I), beta (FIG. 19J), and gamma (FIG. 19K) subunit types. […] Two-way ANOVA with post-hoc Sidak's test, *, p<0.05. FIG. 19M: Response to a light air puff stimulus alone in mice following i.p. administration of either saline or 2 mg/kg isoguvacine treatment. Responses are expressed as percent of startle response to a 125 dB noise. Two-way ANOVA with post-hoc Sidak's test, *, p<0.05. FIG. 19N: Magnitude of startle response to a 125 dB noise in mice following i.p. administration of either saline or 2 mg/kg isoguvacine treatment. Responses are expressed as percent of startle response to a 125 dB noise. […]
FIGS. 28A-28U are related to FIGS. 21A-210. FIG. 28A: Liquid chromatography mass spectrometry (LC-MS) quantified isoguvacine concentrations in brain homogenate samples of mice treated with isoguvacine (2 mg/kg, i.p.) from P1-42. […] Responses are expressed as percent of startle response to a 125 dB startle noise. […]

[1] = after six-week treatment, 2 mg/kg i.p. daily starting at P0

drug in blood and liver (20 mg/kg i.p.): detected in the blood and liver
drug in brain or spinal cord [1]: not the brain or spinal cord
drug in liver [1]: detected in liver
SMILES: O=C(O)C1=CCNCC1 [Isoguvacine, isoguvacine]
drug in brain or cerebrospinal fluid (20 mg/kg i.p.): undetectable in the brain or cerebrospinal fluid
